The values below come from US20260297060A1, “COMPOUNDS FOR THE DEGRADATION OF MUTANT BRAF” (C4 THERAPEUTICS, INC., priority 2023, published 2026).

The target of the assay is T1, BRAF V600E (Homo sapiens, UniProt P15056+Q96SW2, V600E).
T1 construct: knock-in of the HiBiT tag to the endogenous BRAF V600E locus; host or cells: A375.10 (A375 clonal line, CRISPR HiBiT knock-in at the endogenous BRAF V600E locus)
The assay is described as follows: BRAF V600E HiBiT Degradation Assay. Type of assay: cell-based. The method, boiled down:
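Endogenous HiBiT knock-in on BRAF V600E in A375 cells (clone A375.10); 11-point half-log series, top 10 μM, 2, 6 or 24 h at 37° C. Lytic HiBiT luminescence, background-subtracted, normalized to DMSO; 4-parameter fit gives DC50, Emax (residual protein) and IP (inflection point).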
In general terms: The HiBiT peptide binds its large partner to form an active luciferase.

Where [1] appears, read: A375.10 cells, BRAF V600E, 2 hours, inflection point, read-out: HiBiT-Degradation A375.10 BRAF 2 hours IP.
[2] abbreviates: A375.10 cells, BRAF V600E, 2 hours, read-out: HiBiT-Degradation A375.10 BRAF 2 hours DC50.
Where [3] appears, read: A375.10 cells, BRAF V600E, 2 hours, residual protein remaining, read-out: HiBiT-Degradation A375.10 BRAF 2 hours Emax.
Setting [4] is: A375.10 cells, BRAF V600E, 6 hours, inflection point, read-out: HiBiT-Degradation A375.10 BRAF 6 hours IP.
Where [5] appears, read: A375.10 cells, BRAF V600E, 6 hours, read-out: HiBiT-Degradation A375.10 BRAF 6 hours DC50.
Setting [6] is: A375.10 cells, BRAF V600E, 6 hours, residual protein remaining, read-out: HiBiT-Degradation A375.10 BRAF 6 hours Emax.
Setting [7] is: A375.10 cells, HiBiT, BRAF V600E, 24 hours, read-out: HiBiT-Degradation A375.10 BRAF 24 hours DC50.
[8] abbreviates: A375.10 cells, HiBiT, BRAF V600E, 24 hours, read-out: HiBiT-Degradation A375.10 BRAF 24 hours Emax.
Setting [9] is: A375.10 cells, HiBiT, BRAF V600E, 24 hours, read-out: HiBiT-Degradation A375.10 BRAF 24 hours IP.
Where [10] appears, read: read-out: HiBiT-Degradation A375.10 BRAF 2 hours Emax, A375.10 cells, BRAF V600E, 2 hours, residual protein remaining.

One may read the Emax as the size of the effect at its maximum, as opposed to the concentration needed.

Read-outs that look alike come from different tables or passages of the source.

T1 sequence (P15056 whole entry V600E): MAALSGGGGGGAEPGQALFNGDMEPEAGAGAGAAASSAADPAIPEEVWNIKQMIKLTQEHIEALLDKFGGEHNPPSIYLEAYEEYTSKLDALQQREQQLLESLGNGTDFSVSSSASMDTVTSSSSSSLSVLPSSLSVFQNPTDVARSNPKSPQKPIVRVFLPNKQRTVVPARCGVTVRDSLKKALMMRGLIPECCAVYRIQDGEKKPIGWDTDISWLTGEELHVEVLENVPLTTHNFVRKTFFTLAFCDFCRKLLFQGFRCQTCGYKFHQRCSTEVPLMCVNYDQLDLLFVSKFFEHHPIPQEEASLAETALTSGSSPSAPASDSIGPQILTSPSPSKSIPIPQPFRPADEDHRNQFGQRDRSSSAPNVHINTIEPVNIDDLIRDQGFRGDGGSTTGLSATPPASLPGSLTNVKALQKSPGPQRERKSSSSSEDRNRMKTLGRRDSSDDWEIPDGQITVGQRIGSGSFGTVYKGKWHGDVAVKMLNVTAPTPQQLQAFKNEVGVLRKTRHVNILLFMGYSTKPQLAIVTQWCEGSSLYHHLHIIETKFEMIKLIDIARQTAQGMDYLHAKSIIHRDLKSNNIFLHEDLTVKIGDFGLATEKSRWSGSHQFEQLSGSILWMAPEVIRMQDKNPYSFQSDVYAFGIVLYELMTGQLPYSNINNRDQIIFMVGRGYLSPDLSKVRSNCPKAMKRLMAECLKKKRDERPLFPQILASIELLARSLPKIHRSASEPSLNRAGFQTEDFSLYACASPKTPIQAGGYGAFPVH
T1 sequence (Q96SW2 whole entry): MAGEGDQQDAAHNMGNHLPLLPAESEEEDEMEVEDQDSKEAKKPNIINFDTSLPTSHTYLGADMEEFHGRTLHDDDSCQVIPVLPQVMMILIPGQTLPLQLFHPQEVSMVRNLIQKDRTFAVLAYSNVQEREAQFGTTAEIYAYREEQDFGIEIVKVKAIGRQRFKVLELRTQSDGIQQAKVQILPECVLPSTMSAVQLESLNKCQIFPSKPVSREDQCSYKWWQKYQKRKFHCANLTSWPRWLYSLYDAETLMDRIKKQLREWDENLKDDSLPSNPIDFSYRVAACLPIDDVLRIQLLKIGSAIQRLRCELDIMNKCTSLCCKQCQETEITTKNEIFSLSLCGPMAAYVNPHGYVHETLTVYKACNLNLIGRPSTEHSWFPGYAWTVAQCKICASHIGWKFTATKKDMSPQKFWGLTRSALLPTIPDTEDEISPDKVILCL
T1 sequence (Q16531 whole entry partner): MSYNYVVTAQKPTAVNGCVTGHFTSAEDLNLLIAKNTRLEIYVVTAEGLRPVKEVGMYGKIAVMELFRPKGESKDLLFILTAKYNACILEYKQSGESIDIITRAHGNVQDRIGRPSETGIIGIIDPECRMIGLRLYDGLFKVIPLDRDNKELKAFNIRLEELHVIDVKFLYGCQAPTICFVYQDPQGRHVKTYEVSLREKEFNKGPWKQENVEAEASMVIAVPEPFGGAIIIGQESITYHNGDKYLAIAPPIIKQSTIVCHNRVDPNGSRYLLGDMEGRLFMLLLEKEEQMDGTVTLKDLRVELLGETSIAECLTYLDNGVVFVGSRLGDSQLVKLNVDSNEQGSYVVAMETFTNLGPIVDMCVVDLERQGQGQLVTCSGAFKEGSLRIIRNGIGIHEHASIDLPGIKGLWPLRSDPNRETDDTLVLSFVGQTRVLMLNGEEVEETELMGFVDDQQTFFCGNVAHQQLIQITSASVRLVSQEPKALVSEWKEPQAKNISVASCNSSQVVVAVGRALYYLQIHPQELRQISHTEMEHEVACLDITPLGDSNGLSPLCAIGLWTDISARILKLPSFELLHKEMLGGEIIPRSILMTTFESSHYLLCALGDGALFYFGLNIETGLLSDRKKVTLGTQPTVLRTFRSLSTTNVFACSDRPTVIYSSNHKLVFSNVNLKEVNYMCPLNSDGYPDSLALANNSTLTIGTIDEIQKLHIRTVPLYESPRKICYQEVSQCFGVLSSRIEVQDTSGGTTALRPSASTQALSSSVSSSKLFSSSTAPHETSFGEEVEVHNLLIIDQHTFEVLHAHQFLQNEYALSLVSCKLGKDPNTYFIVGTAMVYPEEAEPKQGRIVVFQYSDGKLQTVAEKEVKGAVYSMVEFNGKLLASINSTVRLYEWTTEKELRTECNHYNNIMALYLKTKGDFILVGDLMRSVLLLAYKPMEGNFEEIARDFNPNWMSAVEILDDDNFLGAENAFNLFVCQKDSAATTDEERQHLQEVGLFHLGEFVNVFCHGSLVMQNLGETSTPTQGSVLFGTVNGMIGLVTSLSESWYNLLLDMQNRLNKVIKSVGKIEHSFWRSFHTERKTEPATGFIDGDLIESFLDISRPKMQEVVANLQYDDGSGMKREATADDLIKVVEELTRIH

As to `CN(CCO)S(=O)(=O)Nc1ccc(F)c(Oc2ccc3ncn([C@H]4COC5(CCN(C6CCC(c7ccc(NC8CCC(=O)NC8=O)cc7F)CC6)CC5)C4)c(=O)c3c2)c1C#N` (single isomer, unassigned) [Compound 76], the DC50 runs as follows: under setting [1], below 1000 nM; under setting [2], below 1000 nM; under setting [4], below 1000 nM; under setting [5], below 1000 nM; under setting [7], below 1000 nM; under setting [9], below 1000 nM. Moreover, the Emax by setting is: under setting [3], below 50%; under setting [6], below 50%; under setting [8], below 50%.

As to `CCN(C)S(=O)(=O)Nc1ccc(F)c(Oc2ccc3ncn([C@H]4COC5(CCN(C6CCC(c7ccc(NC8CCC(=O)NC8=O)cc7F)CC6)CC5)C4)c(=O)c3c2)c1F` (single isomer, unassigned) [Compound 78], the DC50 is, setting by setting: under setting [1], below 1000 nM; under setting [2], below 1000 nM; under setting [4], below 1000 nM; under setting [5], below 1000 nM; under setting [7], below 1000 nM; under setting [9], below 1000 nM. Further, the Emax was below 50% under setting [3], below 50% under setting [6] and below 50% under setting [8].

As for `CN(CCO)S(=O)(=O)Nc1ccc(F)c(Oc2ccc3ncn(C4CC5(CCN(C6CCC(c7ccc(NC8CCC(=O)NC8=O)cc7F)CC6)CC5)C4)c(=O)c3c2)c1C#N` (single isomer, unassigned) [Compound 79, 6-[2-cyano-6-fluoro-3-[[2-hydroxyethyl(methyl)sulfamoyl]amino]phenoxy]-3-[7-[4-[4-[(2,6-dioxo-3-piperidyl)amino]-2-fluoro-phenyl]cyclohexyl]-7-azaspiro[3.5]nonan-2-yl]-4-oxo-quinazoline], the DC50 was below 1000 nM under setting [1]; below 1000 nM under setting [2]; below 1000 nM under setting [4]; below 1000 nM under setting [5]; below 1000 nM under setting [7]; below 1000 nM under setting [9]. In addition, the maximum response (Emax) is, setting by setting: under setting [3], below 50%; under setting [6], below 50%; under setting [8], below 50%.

For `CN(CCO)S(=O)(=O)Nc1ccc(F)c(Oc2ccc3ncn(C4CC5(CCN(C6CCC(c7cc8c(cc7F)c(N7CCC(=O)NC7=O)nn8C)CC6)CC5)C4)c(=O)c3c2)c1C#N` (single isomer, unassigned) [Compound 81, 6-[2-cyano-6-fluoro-3-[[2-hydroxyethyl(methyl)sulfamoyl]amino]phenoxy]-3-[7-[4-[3-(2,4-dioxohexahydropyrimidin-1-yl)-5-fluoro-1-methyl-indazol-6-yl]cyclohexyl]-7-azaspiro[3.5]nonan-2-yl]-4-oxo-quinazoline], the DC50 by setting is: under setting [1], below 1000 nM; under setting [2], below 1000 nM; under setting [4], below 1000 nM; under setting [5], below 1000 nM; under setting [7], below 1000 nM; under setting [9], below 1000 nM. For the same molecule, the Emax is 50 to 90% under setting [3], below 50% under setting [6] and below 50% under setting [8].

Consider `CCN(C)S(=O)(=O)Nc1ccc(F)c(Oc2ccc3ncn(C4CC5(CCN(C6CCC(c7cc8c(cc7F)c(N7CCC(=O)NC7=O)nn8C)CC6F)CC5)C4)c(=O)c3c2)c1C#N` (single isomer, unassigned) [Compound 83, 6-[2-cyano-3-[[ethyl(methyl)sulfamoyl]amino]-6-fluoro-phenoxy]-3-[7-[4-[3-(2,4-dioxohexahydropyrimidin-1-yl)-5-fluoro-1-methyl-indazol-6-yl]-2-fluoro-cyclohexyl]-7-azaspiro[3.5]nonan-2-yl]-4-oxo-quinazoline], for which the DC50 is below 1000 nM under setting [1]; below 1000 nM under setting [2]; below 1000 nM under setting [4]; below 1000 nM under setting [5]; below 1000 nM under setting [7]; below 1000 nM under setting [9]. In addition, the maximum response (Emax) reads like this: under setting [6], below 50%; under setting [8], below 50%; under setting [10], below 50%.

Consider `CCN(C)S(=O)(=O)Nc1ccc(F)c(Oc2ccc3ncn(C4CC5(CCN(C6CCC(c7cc8c(cc7F)c(N7CCC(=O)NC7=O)nn8C)CC6F)CC5)C4)c(=O)c3c2)c1C#N` (single isomer, unassigned) [Compound 85], for which the “HiBiT-Degradation A375.10 BRAF 2 hours Emax” value is listed as “*** (<=50%)”. Further, the DC50 under setting [1] was below 1000 nM. Under setting [2], the DC50 was below 1000 nM.

Consider `CCN(C)S(=O)(=O)Nc1ccc(F)c(Oc2ccc3ncn(C4CC5(CCN(C6CCC(c7cc8c(cc7F)c(N7CCC(=O)NC7=O)nn8C)CC6F)CC5)C4)c(=O)c3c2)c1C#N` (single isomer, unassigned) [Compound 86], for which the “HiBiT-Degradation A375.10 BRAF 2 hours Emax” value is on record as “*** (<=50%)”. Also, the DC50 under setting [1] was below 1000 nM. In addition, the DC50 under setting [2] is below 1000 nM.

For the molecule `CC(C)S(=O)(=O)Nc1ccc(F)c(Oc2ccc3ncn([C@H]4COC5(CCN(C6CCC(c7cc8c(cc7F)c(N7CCC(=O)NC7=O)nn8C)CC6)CC5)C4)c(=O)c3c2)c1C#N` (single isomer, unassigned) [Compound 87], the DC50 is, setting by setting: under setting [1], below 1000 nM; under setting [2], below 1000 nM; under setting [4], below 1000 nM; under setting [5], below 1000 nM; under setting [7], below 1000 nM; under setting [9], below 1000 nM. For the same molecule, the Emax is below 50% under setting [3], below 50% under setting [6] and below 50% under setting [8].

Turning to `CCN(C)S(=O)(=O)Nc1ccc(F)c(Nc2ccc3ncn([C@@H]4COC5(CCN(C6CCC(c7ccc(NC8CCC(=O)NC8=O)cc7F)CC6)CC5)C4)c(=O)c3c2F)c1C#N` (single isomer, unassigned) [Compound 90], the DC50 is below 1000 nM under setting [1]; below 1000 nM under setting [2]; below 1000 nM under setting [4]; below 1000 nM under setting [5]; below 1000 nM under setting [7]; below 1000 nM under setting [9]. Moreover, the Emax was below 50% under setting [3], below 50% under setting [6] and below 50% under setting [8].

For `CC(C)S(=O)(=O)Nc1ccc(F)c(Oc2ccc3ncn([C@H]4COC5(CCN(C6CCC(c7ccc(NC8CCC(=O)NC8=O)cc7F)CC6)CC5)C4)c(=O)c3c2)c1C#N` (single isomer, unassigned) [Compound 92], the DC50 under setting [1] was below 1000 nM; the DC50 under setting [2] is below 1000 nM; the DC50 under setting [4] was below 1000 nM; the DC50 under setting [5] is below 1000 nM; the DC50 under setting [7] was below 1000 nM; the DC50 under setting [9] is below 1000 nM. For the same molecule, the Emax runs as follows: under setting [3], below 50%; under setting [6], below 50%; under setting [8], below 50%.

`Cn1nc(N2CCC(=O)NC2=O)c2cc(F)c(C3CCC(N4CCC5(CC4)CC(n4cnc6ccc(Oc7c(F)ccc(NS(=O)(=O)C8CCCC8)c7C#N)cc6c4=O)C5)CC3)cc21` (single isomer, unassigned) [Compound 93, N-[2-cyano-3-[3-[7-[4-[3-(2,4-dioxohexahydropyrimidin-1-yl)-5-fluoro-1-methyl-indazol-6-yl]cyclohexyl]-7-azaspiro[3.5]nonan-2-yl]-4-oxo-quinazolin-6-yl]oxy-4-fluoro-phenyl]cyclopentanesulfonamide]: the DC50 under setting [1] is below 1000 nM; the DC50 under setting [2] is below 1000 nM; the DC50 under setting [4] was below 1000 nM; the DC50 under setting [5] was below 1000 nM; the DC50 under setting [7] is below 1000 nM; the DC50 under setting [9] is below 1000 nM. For the same molecule, the maximal response (Emax) reads like this: under setting [6], below 50%; under setting [8], below 50%; under setting [10], below 50%.

As for `CC(C)S(=O)(=O)Nc1ccc(F)c(Oc2ccc3ncn(C4CC5(CCN(C6CCC(c7cc8c(cc7F)c(N7CCC(=O)NC7=O)nn8C)CC6)CC5)C4)c(=O)c3c2)c1C#N` (single isomer, unassigned) [Compound 95, N-[2-cyano-3-[3-[7-[4-[3-(2,4-dioxohexahydropyrimidin-1-yl)-5-fluoro-1-methyl-indazol-6-yl]cyclohexyl]-7-azaspiro[3.5]nonan-2-yl]-4-oxo-quinazolin-6-yl]oxy-4-fluoro-phenyl]propane-2-sulfonamide], the DC50 under setting [1] is below 1000 nM; the DC50 under setting [2] was below 1000 nM; the DC50 under setting [4] was below 1000 nM; the DC50 under setting [5] was below 1000 nM; the DC50 under setting [7] was below 1000 nM; the DC50 under setting [9] was below 1000 nM. Also, the maximal response (Emax) is, setting by setting: under setting [3], below 50%; under setting [6], below 50%; under setting [8], below 50%.

On to `CO[C@@H]1CCN(S(=O)(=O)Nc2ccc(F)c(Oc3ccc4ncn([C@H]5COC6(CCN(C7CCC(c8cc9c(cc8F)c(N8CCC(=O)NC8=O)nn9C)CC7)CC6)C5)c(=O)c4c3)c2C#N)C1` (single isomer, unassigned) [Compound 100], for which the DC50 is below 1000 nM under setting [1]; below 1000 nM under setting [2]; below 1000 nM under setting [4]; below 1000 nM under setting [5]; below 1000 nM under setting [7]; below 1000 nM under setting [9]. Moreover, the maximum response (Emax) reads like this: under setting [3], below 50%; under setting [6], below 50%; under setting [8], below 50%.
